Here are results for seven molecules from PMC9516332 (Frontiers in Oncology, 2022).

Holding throughout (assay): Kinase panel profiling at 1 µmol/L (MSA or IMAP), percentage inhibition
Assay type in all cases: biochemical

Assay [1] deals with panel of 255 wild-type kinases (Homo sapiens, UniProt P49137). As to conditions: read-out: %-inhibition at 1 µmol/L, MAPKAPK2.
Assay [2] deals with panel of 255 wild-type kinases (Homo sapiens, UniProt Q08345). As to conditions: read-out: %-inhibition at 1 µmol/L, DDR1.
In assay [3] the target is panel of 255 wild-type kinases (Homo sapiens, UniProt Q9HC98). As to conditions: read-out: %-inhibition, NEK6.
Assay [4] deals with panel of 255 wild-type kinases (Homo sapiens, UniProt Q9P289). The following applies: read-out: %-inhibition, MST4.
Assay [5] deals with T1, panel of 255 wild-type kinases (Homo sapiens, UniProt Q9UHD2).
T1 sequence (Q9UHD2 1-729): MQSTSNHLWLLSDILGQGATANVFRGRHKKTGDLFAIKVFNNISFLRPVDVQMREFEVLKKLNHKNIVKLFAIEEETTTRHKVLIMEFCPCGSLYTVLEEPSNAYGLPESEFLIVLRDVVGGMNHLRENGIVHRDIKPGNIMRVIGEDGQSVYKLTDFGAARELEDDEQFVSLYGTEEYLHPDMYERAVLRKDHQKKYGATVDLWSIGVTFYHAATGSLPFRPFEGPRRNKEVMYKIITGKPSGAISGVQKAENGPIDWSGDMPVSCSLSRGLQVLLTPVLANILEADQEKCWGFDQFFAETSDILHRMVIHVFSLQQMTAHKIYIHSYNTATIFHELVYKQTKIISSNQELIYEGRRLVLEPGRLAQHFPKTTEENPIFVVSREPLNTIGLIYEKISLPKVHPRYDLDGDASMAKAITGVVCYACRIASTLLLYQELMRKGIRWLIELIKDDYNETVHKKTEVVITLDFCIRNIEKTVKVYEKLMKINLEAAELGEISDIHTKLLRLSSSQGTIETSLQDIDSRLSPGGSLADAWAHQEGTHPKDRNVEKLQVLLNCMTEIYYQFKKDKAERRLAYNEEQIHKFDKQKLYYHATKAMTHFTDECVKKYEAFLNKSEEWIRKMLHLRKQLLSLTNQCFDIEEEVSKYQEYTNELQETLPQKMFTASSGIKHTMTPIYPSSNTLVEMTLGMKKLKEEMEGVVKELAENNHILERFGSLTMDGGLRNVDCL
As to conditions: read-out: %-inhibition at 1 µmol/L, TBK1.

Assay [6] concerns the target panel of 255 wild-type kinases (Homo sapiens, UniProt Q9P0L2). As to conditions: read-out: %-inhibition, MARK1.
For assay [7], the target named is T2, panel of 255 wild-type kinases (Homo sapiens, UniProt Q9NWZ3).
T2 sequence (Q9NWZ3 1-460): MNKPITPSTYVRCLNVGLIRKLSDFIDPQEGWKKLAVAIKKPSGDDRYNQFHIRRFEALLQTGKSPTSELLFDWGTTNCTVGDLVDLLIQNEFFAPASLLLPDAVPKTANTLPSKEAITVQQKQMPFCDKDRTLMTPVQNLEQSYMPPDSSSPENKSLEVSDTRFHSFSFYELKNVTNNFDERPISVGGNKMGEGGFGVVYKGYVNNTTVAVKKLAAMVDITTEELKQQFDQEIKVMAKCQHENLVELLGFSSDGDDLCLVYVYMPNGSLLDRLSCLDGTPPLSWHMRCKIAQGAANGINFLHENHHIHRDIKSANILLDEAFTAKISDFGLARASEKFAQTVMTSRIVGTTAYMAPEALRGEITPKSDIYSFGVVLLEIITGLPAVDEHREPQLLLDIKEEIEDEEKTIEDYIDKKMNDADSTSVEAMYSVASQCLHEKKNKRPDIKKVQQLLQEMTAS
As to conditions: read-out: %-inhibition at 1 µmol/L, IRAK4.

For assay [8], the target named is panel of 255 wild-type kinases (Homo sapiens, UniProt Q15375). The following applies: read-out: %-inhibition at 1 µmol/L, EPHA7.
Assay [9] addresses panel of 255 wild-type kinases (Homo sapiens, UniProt O96013). As to conditions: read-out: %-inhibition, PAK4.
Assay [10] addresses panel of 255 wild-type kinases (Homo sapiens, UniProt P49674). As to conditions: read-out: %-inhibition at 1 µmol/L, CK1ε.
Assay [11] addresses panel of 255 wild-type kinases (Homo sapiens, UniProt Q13464). As to conditions: read-out: %-inhibition at 1 µmol/L, ROCK1.
Assay [12] has as its target panel of 255 wild-type kinases (Homo sapiens, UniProt P42685). As to conditions: read-out: %-inhibition at 1 µmol/L, FRK.
In assay [13] the target is T3, panel of 255 wild-type kinases (Homo sapiens, UniProt O15530).
T3 sequence (O15530 1-556): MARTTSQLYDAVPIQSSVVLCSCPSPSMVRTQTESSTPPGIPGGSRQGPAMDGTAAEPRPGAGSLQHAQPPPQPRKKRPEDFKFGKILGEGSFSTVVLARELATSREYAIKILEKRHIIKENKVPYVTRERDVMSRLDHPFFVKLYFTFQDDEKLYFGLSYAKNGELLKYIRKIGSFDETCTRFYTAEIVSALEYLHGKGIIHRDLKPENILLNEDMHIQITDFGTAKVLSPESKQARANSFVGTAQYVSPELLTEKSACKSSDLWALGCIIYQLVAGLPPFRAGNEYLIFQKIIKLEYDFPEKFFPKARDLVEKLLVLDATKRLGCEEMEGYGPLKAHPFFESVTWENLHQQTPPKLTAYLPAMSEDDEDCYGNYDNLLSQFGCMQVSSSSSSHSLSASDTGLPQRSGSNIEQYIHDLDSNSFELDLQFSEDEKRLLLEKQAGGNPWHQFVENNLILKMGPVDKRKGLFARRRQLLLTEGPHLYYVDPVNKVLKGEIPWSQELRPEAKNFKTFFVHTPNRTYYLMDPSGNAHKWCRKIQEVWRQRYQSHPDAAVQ
As to conditions: read-out: %-inhibition at 1 µmol/L, PDK1.

[14] abbreviates: kinase MAPKAPK2, 1 µmol/L single concentration.
The mark [15] stands for this setting: kinase DDR1, 1 µmol/L single concentration.
Where [16] appears, read: NEK6, 1 µmol/L single concentration.
The mark [17] stands for this setting: MST4, 1 µmol/L single concentration.
[18] abbreviates: kinase TBK1, 1 µmol/L single concentration.
Where [19] appears, read: MARK1, 1 µmol/L single concentration.
Setting [20] is: kinase IRAK4, 1 µmol/L single concentration.
The mark [21] stands for this setting: kinase EPHA7, 1 µmol/L single concentration.
The mark [22] stands for this setting: PAK4, 1 µmol/L single concentration.
Setting [23] is: kinase CK1ε, 1 µmol/L single concentration.
The mark [24] stands for this setting: kinase ROCK1, 1 µmol/L single concentration.
Where [25] appears, read: kinase FRK, 1 µmol/L single concentration.
Setting [26] is: kinase PDK1, 1 µmol/L single concentration.

SMILES strings stand for the structures. Where two headings read alike, the source gives them in different places.

Turning to `CNC(=O)c1ccc(-c2cnc3ncc(Cc4ccc5ncccc5c4)n3n2)cc1F` [capmatinib], the inhibition at 1 µM in assay [1] is -28%; in [2], -2.22e-14%; in assay [3] it was -4%; in assay [4], -2.24%; in assay [5], -2.83%; in assay [6] it was -5.32%. Besides, the inhibition at 1 µM in assay [7] is -0.569%; in [8] it was -0.309%; in assay [9], 1%; in assay [10], -6%; in [11], 1.06%; in [12], -2%. In assay [13], the inhibition at 1 µM came out at 4%.
Take `COc1cc2ncnc(Nc3ccc(F)c(Cl)c3)c2cc1NC(=O)/C=C/CN1CCCCC1` [dacomitinib]: the inhibition at 1 µM in assay [1] (setting [14]) is -40%; in assay [2] (setting [15]), 101%; in [3] (setting [16]), -4.7%; in assay [4] (setting [17]) it was 12%; in assay [5] (setting [18]) it was 17%; in assay [6] (setting [19]) it was -2%. In addition, the inhibition at 1 µM in assay [7] (setting [20]) was 19%; in assay [8] (setting [21]), 38%; in assay [9] (setting [22]) it was -3.66%; in assay [10] (setting [23]) it was 6.55%; in assay [11] (setting [24]), -2.68%; in [12] (setting [25]), 70%. Besides, in [13] (setting [26]), the inhibition at 1 µM was -7%.
For `C[C@H](Nc1ncnc2nc[nH]c12)c1cc2cccc(Cl)c2c(=O)n1-c1ccccc1` [duvelisib], the inhibition at 1 µM in [1] (setting [14]) was -16%; in assay [2] (setting [15]), 6%; in [3] (setting [16]) it was -1%; in assay [4] (setting [17]), -3.25%; in [5] (setting [18]), -2.46%; in assay [6] (setting [19]), 4.47%. For the same molecule, the inhibition at 1 µM in [7] (setting [20]) is 1.13%; in assay [8] (setting [21]), -2.14%; in assay [9] (setting [22]) it was 0.277%; in assay [10] (setting [23]), 5%; in [11] (setting [24]) it was -4.36%; in [12] (setting [25]), -2.26%. In addition, the inhibition at 1 µM in assay [13] (setting [26]) is 2.42%.
Consider `COC(=O)N[C@@H](C)CNc1nccc(-c2cn(C(C)C)nc2-c2cc(Cl)cc(NS(C)(=O)=O)c2F)n1` [encorafenib], for which the inhibition at 1 µM in [1] (setting [14]) was -11%; in assay [2] (setting [15]) it was 0.442%; in [3] (setting [16]), -2.36%; in assay [4] (setting [17]) it was -4.45%; in [5] (setting [18]) it was 1.21%; in [6] (setting [19]), 2.71%. Moreover, the inhibition at 1 µM is -1.14% in assay [7] (setting [20]); 5% in assay [8] (setting [21]); -2.13% in assay [9] (setting [22]); 15% in assay [10] (setting [23]); 0.403% in [11] (setting [24]); 8% in assay [12] (setting [25]). For the same molecule, the inhibition at 1 µM in assay [13] (setting [26]) was -2.17%.
For `CCc1nc(C(N)=O)c(Nc2ccc(N3CCC(N4CCN(C)CC4)CC3)c(OC)c2)nc1NC1CCOCC1` [gilteritinib], the inhibition at 1 µM in [1] (setting [14]) is -27%; in [2] (setting [15]) it was 99%; in [3] (setting [16]), -2%; in [4] (setting [17]), 4.67%; in [5] (setting [18]), 24%; in assay [6] (setting [19]), 27%. Moreover, the inhibition at 1 µM in [7] (setting [20]) was 79%; in [8] (setting [21]), 79%; in assay [9] (setting [22]), 74%; in assay [10] (setting [23]), 5.55%; in assay [11] (setting [24]) it was 60%; in assay [12] (setting [25]), 95%. The inhibition at 1 µM in assay [13] (setting [26]) is -1.87%.
Consider `O=C(Nc1cnn2ccc(N3CCC[C@@H]3c3cc(F)ccc3F)nc12)N1CC[C@H](O)C1` [larotrectinib], for which the inhibition at 1 µM is -13% in assay [1] (setting [14]); 41% in assay [2] (setting [15]); 0.246% in assay [3] (setting [16]); 1.67% in assay [4] (setting [17]); 0.0799% in assay [5] (setting [18]); -6.38% in assay [6] (setting [19]). For the same molecule, the inhibition at 1 µM in assay [7] (setting [20]) was 1.67%; in [8] (setting [21]), -0.152%; in assay [9] (setting [22]) it was -4.61%; in assay [10] (setting [23]), -2.19%; in [11] (setting [24]) it was -5.36%; in [12] (setting [25]), -0.308%. Besides, the inhibition at 1 µM in assay [13] (setting [26]) was 2.15%.
In the case of `CCN1C(=O)N(c2c(F)c(OC)cc(OC)c2F)Cc2cnc3[nH]c(CN4CCOCC4)cc3c21` [pemigatinib], the inhibition at 1 µM in [1] (setting [14]) was -0.432%; in assay [2] (setting [15]), 41%; in [3] (setting [16]), -2.6%; in assay [4] (setting [17]) it was 56%; in assay [5] (setting [18]), 0%; in assay [6] (setting [19]), 57%. For the same molecule, the inhibition at 1 µM in assay [7] (setting [20]) was 0.22%; in [8] (setting [21]), -0.619%; in assay [9] (setting [22]), -1.88%; in assay [10] (setting [23]), 1.32%; in assay [11] (setting [24]), -2.6%; in [12] (setting [25]), 10%. In addition, the inhibition at 1 µM in assay [13] (setting [26]) was 0.293%.
